How the values were obtained:
[1] = tested on: human iPS cell line (201B7); experiment: Optical microscopic observation of survival of cultured human iPS cells; assay type: cell-based; settings: reagent added to culture in HSM, observed after 3 days; M50054 at 100 μg/mL
Description: (§1) A human iPS cell line (201B7; Riken Cell Bank) was seeded to a 25-cm^2 flask (manufactured by Asahi Glass Co., Ltd.), a 6-well plate (manufactured by Asahi Glass Co., Ltd.), or a 96-well flat-bottomed plate (manufactured by Asahi Glass Co., Ltd.), which is coated with Matrigel, and was cultured in a 5% CO2 incubator at 37° C. The coating with Matrigel was performed by: adding a solution prepared by adding 8.7 ml of Dalbecco's Modified Eagle's Medium/Nutrient F-12 Ham (manufactured by Sigma) to 0.3 ml of Matrigel™ (manufactured by Becton Dickinson) to a 25-cm^2 flask, a 6-well plate, and a 96-well flat-bottomed plate, in amounts of 1 ml, 0.5 ml, and 20 μl, respectively; and leaving the whole to stand still at room temperature for 30 minutes. ReproFF (manufactured by ReproCELL Incorporated) was used as a cell culture medium. ReproFF is a culture medium for culturing primate ES cells or human IFS cells while maintaining the pluripotency. The cells were passaged by culture using a 25-cm^2 flask. The cells were dispersed as described below. After the aspiration of the medium, the 25-cm^2 flask was rinsed with 1 ml of physiological saline per flask. After the aspiration of the saline, 0.5 ml of Accutase (manufactured by Innovative Cell Technologies) was added and the cells were incubated in an incubator for 5 minutes. 0.5 ml of ReproFF was added, and the cells were harvested. Then, the cells were centrifuged at 1,000 rpm for 3 minutes. The supernatant was removed by aspiration, and then the precipitated cells were used by being suspended in ReproFF.
An optical microscope CKX41N-31PHP (manufactured by Olympus Corporation) was used for an optical microscopic observation of cells. […]
Further, RNA was extracted and the expression levels of various genes were analyzed by real-time quantitative PCR. […]
The resultant cells were observed under an optical microscope. In addition, the expression level of AFP in the resultant cells was measured.

AFP gene = AFP gene expression in cultured iPS cells by real-time quantitative PCR; assay type: cell-based, human; settings: for expression level of AFP gene: 2 days in HSM plus compound alone (10 μM)
Description: as §1
A medium used in a search study on various growth factors (hereinafter abbreviated as iPSm[-]) was prepared by adding 20% Knockout™ Serum Replacement (hereinafter abbreviated as KSR; manufactured by Life Technologies), Minimum Essential Amino Acids (manufactured by Life Technologies), 2 mM L-glutamine (manufactured by Life Technologies), and 1 mM 2-mercaptoethanol (manufactured by Sigma-Aldrich) to Dulbecco's […]-F12 (manufactured by Sigma-Aldrich) (Takahashi, K. et al., “Induction of Pluripotent Stem Cells from Adult Human Fibroblasts by Defined Factors,” Cell, 2007, Vol. 131, No. 5, p. 861-872).
Cell differentiation was confirmed by measuring an expression gene by real-time quantitative PCR. RNA was extracted by using Isogen (manufactured by NIPPON GENE) according to the manufacturer's instructions. 5 μg of total RNA was synthesized by using Superscript3 first-strand synthesis system for PCR (manufactured by Life Technologies) and an oligo dT primer according to the manufacturer's instructions. Real-time quantitative PCR was performed using 4 ng of synthesized cDNA per sample. PCR was performed as follows: PCR were 40 cycles of denaturation for 5 seconds and annealing-extension for 5 seconds. SYBR Green Master Mix (manufactured by Life Technologies) was used for the reaction. Mini Opticon system (manufactured by Bio-Rad) was used for detection in real-time PCR. The expression level of each gene was calculated as an average value of data obtained from three wells. Ribosomal protein L (RPL)-19 was used as an internal control and the expression level of each gene was represented as a relative expression level to the expression level of RPL-19.
First, iPS cells were cultured in HSM to confirm differentiation of the iPS cells to hepatocytes. Specifically, iPS cells were cultured in HSM for 2 days, and then gene expression in the cells was measured by real-time quantitative PCR. Thus, the induction of differentiation of iPS cells to hepatocytes was detected. ReproFF was used as a control medium and similar investigations were performed.
In this Example, the addition of NEAA and sodium pyruvate (1 mM) to HSM was investigated for the purpose of enhancing the survival of iPS cells. Specifically, iPS cells were cultured for 2 days in a medium prepared by adding NEAA and sodium pyruvate (1 mM) to HSM, and the expression of AFP gene was measured by real-time quantitative PCR. […]

[2] = tested on: human iPS cell line (201B7); experiment: Cell proliferation assay (MTS assay) of surviving iPS cells; assay type: cell-based
Description: A human iPS cell line (201B7, Riken Cell Bank) was seeded to a 96-well flat-bottomed plate coated with Matrigel at 1,000 cells/50 μl per well. After 48 hours of culture, 3-(4,5-dimethylthiazol-2-yl)-5-(3-carboxymethoxyphenyl)-2-(4-sulfophenyl)-2H-tetrazolium inner salt (MTS; manufactured by Promega) was added at 5 μl per well, and the cells were incubated in an incubator for 2 hours. After that, cell proliferation was verified by measuring an absorbance at a wavelength of 490 nm with iMark™ Microplate Absorbance Reader (manufactured by Bio-Rad).
In view of the foregoing, MTS assay was performed 48 hours after the addition of M50054.

[3] = 1 week in iPSm(-) supplemented with growth factor
[4] = 48 hours in HSM supplemented with the factor alone

O=C(O)c1ccc(Cl)c(S(=O)(=O)Nc2cccc([N+](=O)[O-])c2)c1 [CTP inhibitor, 4-chloro-3-[[(3-nitrophenyl)amino]sulfonyl]-benzoic acid]
survival of iPS cells observed with an optical microscope [1]: died

O=C1OC(C=Cc2ccccc2)=N/C1=C\c1cccnc1 [DAPK inhibitor, (4Z)-4-(3-pyridylmethylene)-2-styryl-oxazol-5-one]
survival of iPS cells observed with an optical microscope [1]: died

CC(=O)Nc1ccc(Cc2ccc(NC(C)=O)cc2)cc1 [FH1, N,N′-(methylenebis(4,1-phenylene))diacetamide]
expression level of AFP gene (AFP gene): did not exhibit such effect

Cc1ccc(Cl)cc1N(CC(=O)Nc1c(F)cccc1F)S(C)(=O)=O [FPH1, 2-(N-(5-chloro-2-methylphenyl)methylsulfonamido)-N-(2,6-difluorophenyl)acetamide]
expression level of AFP gene (AFP gene): increased

O=C1CCCC(=O)C1CC1C(=O)CCCC1=O [M50054, 2,2′-methylenebis(1,3-cyclohexanedione)]
expression of AFP gene (AFP gene; 48 hours in HSM plus M50054 at […] as printed): upregulated | MTS assay value, one-way analysis of variance ([2]; 100 μg/mL compared to 0 μg/mL and 1,000 μg/mL, P<0.05): significantly high value | cell toxicity (MTS assay) ([2]; 1,000 μg/mL): showed cell toxicity | absorbance in MTS assay (surviving cells) ([2]; 48 hours after addition of M50054, 100 g/mL as printed): maximum absorbance | survival of iPS cells observed with an optical microscope [1]: some of the iPS cells survived

HGF: hepatocyte growth factor, commercially available from Wako Pure Chemical Industries
expression of AFP gene (AFP gene; [3]): upregulating effect

B1: oncostatin M: cytokine of the IL-6 family (protein, UniProt P13725 26-221, looked up)
Oncostatin-M: AAIGSCSKEYRVLLGQLQKQTDLMQDTSRLLDPYIRIQGLDVPKLREHCRERPGAFPSEETLRGLGRRGFLQTLNATLGCVLHRLADLEQRLPKAQDLERSGLNIEDLEKLQMARPNILGLRNNIYCMAQLLDNSDTAEPTKAGRGASQPPTPTPASDAFQRKLEGCRFLHGYHRFMHSVGRVFSKWGESPNRSRR
expression of AFP gene (AFP gene; [3]): upregulating effect | expression of AFP gene, compared to HGF (AFP gene; [4]): high upregulating effect | expression of AFP gene, compared to fetal liver (AFP gene; [4]): more upregulated than the expression of the gene in fetal liver

From patent US10006005B2, “Culture medium and method for inducing differentiation of pluripotent stem cells to hepatoblasts” (National University Corporation Chiba University, priority 2014, dated 2018)
